The values that follow come from patent US20230098403A1, “MAGNETIC RESONANCE IMAGING CONTRAST AGENT, PREPARATION METHOD AND USE THEREOF” (GUANGZHOU PINGLAN MEDICAL TECHNOLOGY CO., LTD., priority 2020, published 2023).

The structures appear in SMILES notation.

Series [1] can be described thus: Relaxivity measurement (T1 and T2 relaxation, MRI Contrast Agent Analyzer). It is filed as physicochemical. The settings on record: 0.5 T, 32° C. Here is the method: The method for measuring the relaxivity comprises the following steps: preparing contrast agent solutions in a gradient concentration (0.054, 0.109, 0.224, 0.451, 0.906 mM, in Hepes buffer, pH=7.4), and measuring the contrast agent samples at different concentrations by Niumag PQ001 MRI Contrast Agent Analyzer (0.5±0.08T, main frequency of instrument: 21.3 MHz; at 32° C.) to respectively obtain their T1 and T2 relaxation time, and then performing a linear fitting between the relaxation rate, Ri (Ri=1/Ti, i=1, 2) and the contrast agent concentrations to obtain a slope, i.e., relaxivity (ri, i=1, 2). Relaxivity reflects the ability of magnetic resonance imaging contrast agent to alter the relaxation time of water proton and is an important parameter to evaluate the quality of contrast agent. Relaxivity (ri, i=1, 2) is defined as the alteration in the relaxation rate of water proton (1/Ti, i=1, 2) by unit concentration of MRI Contrast agent (mmol/L).

The conditions of series [2]: comparison value for the commercial agent; cited from earlier work.

For `O=C([O-])CN(CP(=O)([O-])O)C1CCCCC1N(CC(=O)[O-])CP(=O)([O-])O.[Fe+3].[Na+]` (centres unmarked) [Example 4], the “relaxation efficiency r1” value in series [1] stood at 1.80 mmol⁻¹ s⁻¹.
Take `CNC[C@H](O)[C@@H](O)[C@H](O)[C@H](O)CO.CNC[C@H](O)[C@@H](O)[C@H](O)[C@H](O)CO.O=C([O-])CN(CCN(CC(=O)[O-])CC(=O)O)CCN(CC(=O)[O-])CC(=O)O.[Gd+3]` [Magnvist®]: the “relaxivity r1” value in series [2] was 3.4 mmol⁻¹ s⁻¹.
